According to patent US8821898B2, “Active compound combinations having insecticidal and acaricidal properties” (Bayer CropScience AG, priority 2003, dated 2014):

Tests used:
Format in all cases: in vivo
Myzus persicae = Myzus persicae test (dipped cabbage leaves); details: 4 ppm
Protocol: (§1) To produce a suitable preparation of active compound, 1 part by weight of active compound is mixed with the stated amounts of solvent and emulsifier, and the concentrate is diluted with emulsifier-containing water to the desired concentration.
Cabbage leaves (Brassica oleracea) which are heavily infested by the green peach aphid (Myzus persicae) are treated by being dipped into the preparation of active compound of the desired concentration.
After the desired period of time, the kill in % is determined. 100% means that all aphids have been killed; 0% means that none of the aphids have been killed. The determined kill rates are entered into Colby's formula (see on page 41).

[1] = test system: Phaedon cochleariae larvae; assay: Phaedon cochleariae larvae test (dipped cabbage leaves)
Protocol: as §1
Cabbage leaves (Brassica oleracea) are treated by being dipped into the preparation of active compound of the desired concentration and are populated with larvae of the mustard beetle (Phaedon cochleariae) while the leaves are still moist.
After the desired period of time, the kill in % is determined. 100% means that all beetle larvae have been killed; 0% means that none of the beetle larvae have been killed. The determined kill rates are entered into Colby's formula (see page 41).

[2] = test system: Plutella xylostella, resistant strain; assay: Plutella xylostella test (resistant strain)
Protocol: as §1
Cabbage leaves (Brassica oleracea) are treated by being dipped into the preparation of active compound of the desired concentration and are populated with caterpillars of the diamondback moth (Plutella xylostella, resistant strain) while the leaves are still moist.
(§2) After the desired period of time, the kill in % is determined. 100% means that all caterpillars have been killed; 0% means that none of the caterpillars have been killed. The determined kill rates are entered into Colby's formula (see page 41).

Aphis gossypii = Aphis gossypii test (dipped cotton leaves)
Protocol: as §1
Cotton leaves (Gossypium hirsutum) which are heavily infested by the cotton aphid (Aphis gossypii) are treated by being dipped into the preparation of active compound of the desired concentration.
After the desired period of time; the kill in % is determined. 100% means that all aphids have been killed; 0% means that none of the aphids have been killed. The determined kill rates are entered into Colby's formula (see page 41).

Spodoptera frugiperda = Spodoptera frugiperda test (dipped cabbage leaves)
Protocol: as §1
Cabbage leaves (Brassica oleracea) are treated by being dipped into the preparation of active compound of the desired concentration and are populated with caterpillars of the army worm (Spodoptera frugiperda) while the leaves are still moist.
as §2

## CCOC(=O)OC1=C(c2cc(C)ccc2C)C(=O)NC12CCC(OC)CC2 (stereo not shown) [I-a-4]
Myzus persicae; Table B1
  Kill rate in % after 6d, found: 80%
[1]; 4 ppm
  Kill rate in % after 6d, found: 15%
[2]; 0.16 ppm
  Kill rate in % after 6d, found: 0%

## CC(C)N1C(=O)N(c2ccccc2)CS/C1=N\C(C)(C)C [(2-2) buprofezin, buprofezin, reference compound]
Aphis gossypii; 20 ppm
  Kill rate in % after 7d, found: 0%
[1]; 100 ppm
  Kill rate in % after 3d, found: 20%

## Cc1cc(Cl)cc(C(=O)NC(C)C)c1NC(=O)c1cc(C(F)(F)F)nn1-c1ncccc1Cl [II-1-9]
Aphis gossypii; 4 ppm
  Kill rate in % after 7d, found: 20%
Aphis gossypii; 20 ppm
  Kill rate in % after 6d, found: 55%
Myzus persicae; Table B1
  Kill rate in % after 6d, found: 30%
Myzus persicae; Table B2
  Kill rate in % after 6d, found: 0%
[1]; 0.16 ppm
  Kill rate in % after 3d, found: 5%
  Kill rate in % after 6d, found: 0%
[2]; 0.0064 ppm
  Kill rate in % after 6d, found: 0%
Spodoptera frugiperda; 0.16 ppm
  Kill rate in % after 3d, found: 45%

## N#CCNC(=O)c1cnccc1C(F)(F)F [(2-6) flonicamid, flonicamid, reference compound]
Aphis gossypii; 20 ppm
  Kill rate in % after 6d, found: 40%
Myzus persicae; Table B2
  Kill rate in % after 6d, found: 40%
Spodoptera frugiperda; 100 ppm
  Kill rate in % after 3d, found: 5%
